Experimental findings from paper PMC7093416, “Selective USP7 inhibition elicits cancer cell killing through a p53-dependent mechanism” (Scientific Reports, 2020) are described below.

This assay concerns the target T1, USP7 C223A catalytic domain (Homo sapiens, UniProt Q93009, C223A).
T1 construct: catalytic domain (208–560) used were cloned as described; inferred from Ni-NTA purification; made in house; host or cells: E. coli BL21 (DE3)
Kind of assay: Intact MS labeling of USP7 C223A catalytic domain. In kind it is binding. Particulars: 2.5-fold molar excess, 2 hours. How it is done:
The constructs encoding USP7 full length (amino acids 1–1102) and catalytic domain (208–560) used were cloned as described. Both constructs were overexpressed in E. coli BL21 (DE3). Cells were grown at 37 °C to an OD of 0.9, cooled to 16 °C, induced with 500 μM isopropyl-1-thio-D-galactopyranoside (IPTG), incubated overnight at 16 °C, collected by centrifugation, and stored at −80 °C. Cell pellets were sonicated in lysis buffer (25 mM Tris pH 8, 1 M NaCl, and 10 mM BME) supplemented with 10 μg/ml phenylmethanesulfonylfluoride (PMSF) and the resulting lysate was centrifuged at 30,000 xg for 40 min. Ni-NTA beads (Qiagen) were mixed with lysate supernatant for 2 hours, and washed with lysis buffer supplemented with 25 mM imidazole. The bound protein was eluted with lysis buffer supplemented with 300 mM imidazole. […]
Figure S1: Full-length recombinant purified USP7 was pre-incubated with XL041 at the indicated concentrations for the indicated times, then Ub-AMC was added and fluorescence was monitored. […]
Figure S5: MCF7 cells were transfected with the indicated pcDNA constructs for 48 hours, then treated with XL177A at the indicated concentration for 3 hours. Cells were lysed, and FLAG-USP7 target engagement was assessed with the DUB ABP HA-Ub-VS. Densitometry was performed using ImageStudio software and analyzed using Graphpad Prism. […]

T1 sequence (Q93009 208-560 C223A): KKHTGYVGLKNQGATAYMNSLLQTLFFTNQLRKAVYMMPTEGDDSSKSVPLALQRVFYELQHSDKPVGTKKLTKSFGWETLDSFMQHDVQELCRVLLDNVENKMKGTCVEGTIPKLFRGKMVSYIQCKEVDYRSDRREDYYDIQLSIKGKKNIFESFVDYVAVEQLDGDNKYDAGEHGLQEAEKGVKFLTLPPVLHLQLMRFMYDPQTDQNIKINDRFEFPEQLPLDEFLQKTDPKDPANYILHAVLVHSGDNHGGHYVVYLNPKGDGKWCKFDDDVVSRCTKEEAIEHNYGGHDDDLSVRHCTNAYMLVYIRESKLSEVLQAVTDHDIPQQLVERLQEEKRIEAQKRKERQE

Consider `CN1CCN(CCC(=O)Nc2ccc3c(=O)n(CC4(O)CCN(C(=O)[C@@H](CCCNC(=O)c5ccc6c(Cl)c7c(nc6c5)CCCC7)Cc5ccccc5)CC4)cnc3c2)CC1` [XL177A], for which the “mass shift with USP7 C223A” value was “no mass shift was detected”.
